Reference: paper PMC9783881, “Synthesis and Preclinical Evaluation of Small-Molecule Prostate-Specific Membrane Antigen-Targeted Abiraterone Conjugate” (Molecules, 2022)
Like-named read-outs stand apart in the source and are kept apart here.

Experiments:
cytochrome P450 3A4 = target: T1, cytochrome P450 3A4 (Homo sapiens, UniProt P08684); experiment: Cytochrome inhibition in human liver microsomes, 3A4; type: in vitro ADME
T1 construct: isoenzyme activity in human liver microsomes using conventional sample substrates and HPLC-MS/MS detection; from tissue; host or cells: human liver microsomes
Text: (§1) To assess the effect of drugs on liver cytochrome activity in drug development, test systems with recombinant enzymes and fluorescent substrates as well as microsomes with metabolic substrates and HPLC-MS/MS analysis were used. The present study aimed to investigate the effect of targeted delivery drugs specific to malignant prostate cells on cytochrome P450 (CYP450) isoenzyme activity in human liver microsomes using conventional sample substrates and HPLC-MS/MS detection. Detailed methodological parameters are described in the Supplementary Material.

[1] = test system: human adult dermal fibroblasts (HDFa); experiment: Cytotoxicity on human adult dermal fibroblasts, MTT-test; type: cell-based
Description: Human adult dermal fibroblasts (HDFa). (ATCC) were propagated in DMEM medium (Paneco) supplemented with 10% fetal calf serum (Gibco) and 1% pemicillin/streptomycin in a 5% CO2 atmosphere at 37 °C. Cytotoxicity of PSMA-Abi and AbiAc in fibroblasts were studied using MTT-test. The cells in the exponential growth phase were trypsinized, counted, and seeded at a density of 5000 cells/well in 96-well plate. Cells were incubated with both tested agents at the designated concentrations (0.4–100 μM) for 72 h; then, each well was treated with 20 μL MTT solution in PBS (5 mg/mL) and cells were incubated at least for 3 h, and formazan was dissolved in DMSO. The absorbance was measured at […] and 620 nm using Thermofischer Scientific Multiscan FC. The values for each point were calculated from 6 wells.

cytochrome P450 2C8 = target: T2, cytochrome P450 2C8 (Homo sapiens, UniProt P10632); experiment: Cytochrome inhibition in human liver microsomes, 2C8; type: in vitro ADME; conditions: substrate Paclitaxel, read-out: IC50, 2C8 (PSMA-Abi)
T2 construct: isoenzyme activity in human liver microsomes using conventional sample substrates and HPLC-MS/MS detection; from tissue; host or cells: human liver microsomes
T2 sequence (P10632 1-490): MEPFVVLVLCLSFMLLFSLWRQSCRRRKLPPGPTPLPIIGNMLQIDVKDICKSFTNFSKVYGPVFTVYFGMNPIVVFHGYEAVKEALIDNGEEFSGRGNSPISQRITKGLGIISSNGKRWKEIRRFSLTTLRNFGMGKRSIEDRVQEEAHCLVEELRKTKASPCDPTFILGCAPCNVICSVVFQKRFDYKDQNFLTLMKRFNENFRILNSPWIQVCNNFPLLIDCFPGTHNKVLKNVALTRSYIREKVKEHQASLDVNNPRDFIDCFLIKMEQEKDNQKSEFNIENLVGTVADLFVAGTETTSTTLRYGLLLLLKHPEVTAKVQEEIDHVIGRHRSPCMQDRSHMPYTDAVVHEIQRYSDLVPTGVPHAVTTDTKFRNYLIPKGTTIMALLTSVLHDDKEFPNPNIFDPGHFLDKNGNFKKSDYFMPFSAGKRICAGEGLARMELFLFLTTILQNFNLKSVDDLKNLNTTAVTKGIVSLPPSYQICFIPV
Text: as §1

PC-3 = experiment: Single cell ROS measurement with Pt-nanoelectrodes, PC-3; type: cell-based, human; conditions: PC-3, 1 h incubation, IC50 concentration
Description: Commercially available, disk-shaped carbon nanoelectrodes isolated in quartz (ICAPPIC Limited, London, UK) with diameters of 60–100 nm were used to prepare Pt nanoelectrodes for the amperometric detection of intracellular ROS level. Preparation of Pt-nanoelectrodes has been described in detail previously.
Briefly, a disk-shaped carbon nanoelectrode was etched in a 0.1 M NaOH, 10 mM KCl solution for 20–40 cycles of 10 seconds (from 0 to +2200 mV) to create nanocavities. Electrochemical deposition of platinum in nanocavities was achieved by cycling from 0 to −800 mV with a scan rate of 200 mV s^−1 for 8 to 10 cycles in 2 mM H2PtCl6 solution in 0.1 M hydrochloric acid. […]
The setup for amperometric measurements included a PC that was connected to a system consisting of an ADC–DAC converter Axon Digidata 1550B (Axon Instruments, Burlingame, CA, USA) and patch-clamp amplifier MultiClamp 700B (Axon Instruments, USA). […] The potential difference between the Pt-nanoelectrode and the reference electrode was recorded with the pClamp 11 software suite (Molecular Devices, Silicon Valley, CA, USA) and processed with Origin 2018 software.
PC-3 (2.0 × 10^5)/22Rv1 (3.5 × 10^5) cells were seeded in 35 mm Petri dishes, incubated under the conditions described above, and then treated for 24 h. […] Untreated cells were used as a control, which was evaluated at the beginning and at the end of the experiment. […]

T1 sequence (P08684 whole entry): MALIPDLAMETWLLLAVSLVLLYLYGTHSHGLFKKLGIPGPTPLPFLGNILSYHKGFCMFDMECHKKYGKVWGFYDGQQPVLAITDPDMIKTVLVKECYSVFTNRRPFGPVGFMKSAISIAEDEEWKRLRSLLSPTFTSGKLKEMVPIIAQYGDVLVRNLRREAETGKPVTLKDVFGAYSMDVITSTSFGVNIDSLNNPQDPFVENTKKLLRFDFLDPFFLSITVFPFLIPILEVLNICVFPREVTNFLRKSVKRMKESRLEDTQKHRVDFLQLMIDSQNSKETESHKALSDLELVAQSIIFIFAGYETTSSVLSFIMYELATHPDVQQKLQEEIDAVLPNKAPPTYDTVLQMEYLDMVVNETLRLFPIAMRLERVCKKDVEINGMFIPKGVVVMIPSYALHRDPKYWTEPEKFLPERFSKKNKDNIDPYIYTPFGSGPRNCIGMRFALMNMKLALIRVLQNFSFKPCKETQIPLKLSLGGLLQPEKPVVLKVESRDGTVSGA

**Q.** Which results are given for C[C@]12CC[C@H](OC(=O)CCCc3cn(CCCNC(=O)[C@H](Cc4ccc(O)cc4)NC(=O)[C@H](Cc4ccccc4)NC(=O)CCC(=O)NCCCCCC(=O)N(CCCC[C@H](NC(=O)N[C@@H](CCC(=O)O)C(=O)O)C(=O)O)Cc4cccc(Cl)c4)nn3)CC1=CC[C@@H]1[C@@H]2CC[C@]2(C)C(c3cccnc3)=CC[C@@H]12 [PSMA-Abi]?
**A.** IC50 (cytochrome P450 3A4; substrate Midazolam, read-out: IC50, 3A4-M (PSMA-Abi)): 1.1 ± 0.2 µM; IC50 (cytochrome P450 3A4; substrate Testosterone, read-out: IC50, 3A4-T (PSMA-Abi)): 5.7 ± 0.8 µM; CC50 ([1]; HDFa, 72 h, MTT): > 100 µM; toxicity for human fibroblasts ([1]; tested concentrations 0.4–100 µM): inactive; IC50 (cytochrome P450 2C8): 4.4 ± 1.1 µM; ROS (hydrogen peroxide) level in single cells (PC-3): remained at the level of the AbiAc sample
